Laboratory results as given in article PMC9139161, “Phenolics from Chrozophora oblongifolia Aerial Parts as Inhibitors of α-Glucosidases and Advanced Glycation End Products: In-Vitro Assessment, Molecular Docking and Dynamics Studies” (Biology, 2022).
pIC50: −log10 of the molar value. Several values for one entry are separate records, joined by “and”; a condition that tells them apart may be missing. Equal entries are not always repeated.

Columns and labels:
[1] = biological target: T1, porcine pancreatic lipase type II (Sus scrofa, UniProt P00591); assay: Pancreatic lipase inhibition (p-NPD substrate); type: biochemical; conditions: for pIC50: porcine pancreatic lipase, p-NPD substrate, read-out: Pancreatic lipase IC50 (Mean ± SE)
T1 construct: purchased sigma Aldrich L3126
T1 sequence (P00591 1-450): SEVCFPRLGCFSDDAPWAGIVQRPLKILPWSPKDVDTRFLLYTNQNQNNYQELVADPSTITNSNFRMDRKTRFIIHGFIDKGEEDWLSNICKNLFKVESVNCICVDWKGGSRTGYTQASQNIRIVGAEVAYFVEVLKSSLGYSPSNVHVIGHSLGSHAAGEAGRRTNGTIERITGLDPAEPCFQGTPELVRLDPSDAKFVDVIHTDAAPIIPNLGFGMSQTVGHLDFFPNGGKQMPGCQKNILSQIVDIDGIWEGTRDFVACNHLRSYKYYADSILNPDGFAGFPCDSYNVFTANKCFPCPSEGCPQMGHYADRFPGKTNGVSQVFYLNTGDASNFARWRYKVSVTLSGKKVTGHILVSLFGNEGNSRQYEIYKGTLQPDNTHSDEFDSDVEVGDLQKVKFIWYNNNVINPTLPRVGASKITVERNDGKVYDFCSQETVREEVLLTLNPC
Protocol: The inhibition of pancreatic lipase activity was assessed using p-nitrophenyl dodecanoate (p-NPD, Sigma-Aldrich, St. Louis, MO, USA cat#N0252) as substrate and porcine pancreatic lipase type II (PPL, sigma Aldrich, cat#L3126) which was described previously with slight modification. Solutions of the provided compounds were prepared in final concentrations of 50 µM in 5% DMSO. […] In a Tris-HCl buffer (100 mM, pH 8); 50 μL of PPL (1 mg/mL) was incubated with 25 μL of samples/blank for 10 min at 37 °C. Then, 10 μL of solution p-NPD (10 mM, in isopropanol) was added followed by dilution of the final volume to 200 μL with Tris-HCl buffer. The mixture was incubated for 20 min at 37 °C and absorbance was then measured at 405 nm on a TECAN microplate reader (Männedorf, Switzerland). After that, the percentage of lipase inhibition was assessed (Supplementary Table S1 and Figure S1).

[2] = test system: advanced glycation end products (AGEs) formation, BSA-methylglyoxal model; assay: AGEs formation inhibition, BSA-methylglyoxal assay; type: biochemical; conditions: AGEs fluorescence, 72 h, 37 °C; read-out: BSA-Methylglyoxal Model IC50 (Mean ± SE)
Protocol: The isolated compounds were prepared at final concentrations of 500 µM in DMSO in the BSA-fructose assay, and 1000 µM in all other AGEs assays. Compounds that exceeded 50% inhibition at this concentration were serially diluted to determine their IC50. All tests were conducted using quercetin (positive control).
AGEs inhibitory activity of the isolated compounds was determined according to the reported procedures with slight modification. Briefly, in black 96-microwell plates, samples were incubated for 72 h at 37 °C in the dark with bovine serum albumin (BSA, 50 mg/mL) (in 200 mM phosphate buffer, pH 7.4, with 0.02% sodium azide) and methyl-glyoxal (53.3 mM, in distilled water), (1:1:1 v/v/v). On a microplate reader (Fluostar Omega/BMG Labtech/Germany), fluorescent AGEs were detected using excitation and emission wavelengths of 355 nm and 460 nm, respectively. Triplicates of all experiments were performed.

ABTS assay = conditions: ascorbic acid equivalents; mean ± SD, n = 3
Protocol: DMSO was used for the preparation of 0.5 mg/mL concentrations of isolated compounds, meanwhile, the positive control (ascorbic acid) was used to prepare a stock solution of 1000 µM in water; from which seven concentrations were prepared including 7.812, 15.625, 31.25, 62.5, 125, 250 and 500 µM to construct the concentration-response curve (Supplementary Data Figure S2). The activity of the tested compounds to scavenge the free radicals of ABTS (2,2′-azino-bis (3-ethylbenzothiazoline-6-sulfonic acid)) was assessed according to the methodology reported previously with slight modifications.
Five milliliters of aqueous solution (7 mM) of ABTS was mixed with 88 µL potassium persulfate (140 mM) and the mixture was kept in the dark for 16 h to produce ABTS radical cation (ABTS^•+). Then methanol was added to the reaction mixture to dilute the formed ABTS^•+ solution to an absorbance of 0.700 (1:50) at 690 nm.
Ten microliters of the tested compound were incubated with 190 μL of ABTS^•+ solution in a 96-well plate for thirty minutes in the dark and the absorbance was measured later using a microplate reader (TECAN, Männedorf, Switzerland) at 690 nm. Data are represented as means (n = 3) ± SD and the antioxidant effect of the tested compounds was calculated as µM Ascorbic acid equivalents by substitution in the linear regression equation (Supplementary Figure S2).

[3] = Metal chelation assay (ferrozine); conditions: EDTA equivalents; mean ± SD
Protocol: Isolated compounds were dissolved in DMSO to prepare a concentration of 0.5 mg/mL, meanwhile, the positive control (EDTA) was used to prepare a stock solution of 100 µM in water; from which six concentrations were prepared including 5, 10, 20, 40, 50 and 80 µM to construct the dose-response curve. The assay was carried out as previously reported, with minor modifications. Briefly, in 96 wells plate (n = 6) 20 µL of the freshly prepared ferrous sulfate (0.3 mM) was mixed with 50 µL of the tested compound and incubated with 30 µL of ferrozine (0.8 mM) for 10 min at room temperature. Finally, reduction in color intensity was assessed at 540 nm using a microplate reader (Tecan, San Jose, CA, USA). Data are represented as means (n = 3) ± SD and the antioxidant effect of the extracts was calculated as µM EDTA equivalents by substitution in the linear regression equation (Supplementary Figure S4).

[4] = Oxygen radical absorbance capacity (ORAC) assay; conditions: Trolox equivalents
Protocol: Isolated compounds were dissolved in DMSO to prepare a concentration of 0.25 mg/mL, meanwhile, the positive control (Trolox) was used to prepare a stock solution of 1 mM in MeOH; from which nine concentrations were prepared including 400, 300, 200, 150, 100, 75, 50, 25, and 12.5 µM to construct the dose-response curve. The assay was carried out as previously reported, with minor modifications. Briefly, 12.5 µL of the prepared sample(s) were incubated with 75 µL fluoresceine (10 nM) for 30 min at 37 °C. Measuring fluorescence was performed (520 EM, 485 EX, nm) for 3 cycles (90 s cycle time) for background measurement (Supplementary Figure S5). Subsequently, to each well, freshly-made AAPH (2,2′-azobis(2-amidinopropane) dihydrochloride) (12.5 µL, 240 mM) was immediately added. Measuring fluorescence (520 EM, 485 EX, nm) was maintained (90 s × 85 cycles) for 2.5 h (Supplementary Figure S5). The antioxidant potential (µM trolox equivalents) was estimated by substituting in the linear-regression equation.

Compound	inhibition at 50 µM [1] [%]	pIC50 [1]	pIC50 [2]	Pancreatic lipase inhibitory effect (in words) ([1]; till 50 μM concentration)	ABTS (ABTS assay) [mM AAE/mg]	Metal chelation [3]	ORAC assay [4]
O=c1cc(-c2ccc(O)cc2)oc2cc(O[C@@H]3O[C@H](CO)[C@@H](O)[C@H](O)[C@H]3O)cc(O)c12 [Compound 1, apeginin-7-O-β-D-glucoside]	4.48	< 4.30	3.18		0.702±0.050	19.26±1.52 µM EDTA eq/mg and 19.26 µM EDTA eq/mg	1.092±0.067 mM TE/mg and 1.09 mM TE/mg
O=C(O)[C@H]1O[C@@H](Oc2c(-c3ccc(O)c(O)c3)oc3cc(O)cc(O)c3c2=O)[C@H](O)[C@@H](O)[C@@H]1O [Compound 2, quercetin-3-O-β-D-glucuronic acid]	1.92	< 4.30	2.73		0.646 ±0.072	8.29±0.05 µM EDTA eq/mg and 8.29 µM EDTA eq/mg	0.739±0.098 mM TE/mg and 0.74 mM TE/mg
C[C@@H]1O[C@@H](OC[C@H]2O[C@@H](Oc3c(-c4ccc(O)c(O)c4)oc4cc(O)cc(O)c4c3=O)[C@H](O)[C@@H](O)[C@@H]2O)[C@H](O)[C@H](O)[C@H]1O [Compound 4, rutin]		< 4.30	3.31		1.972±0.059	28.96±2.07 µM EDTA eq/mg and 28.96 µM EDTA eq/mg	2.164±0.096 mM TE/mg and 2.16 mM TE/mg

Second part, led by results:

inhibition at 50 µM [1] [%]	pIC50 [1]	pIC50 [2]	Pancreatic lipase inhibitory effect (in words) ([1]; till 50 μM concentration)	Compound	ABTS (ABTS assay) [mM AAE/mg]	Metal chelation [3]	ORAC assay [4]
2.26	< 4.30	< 2.92		O=C(O)[C@H]1O[C@@H](Oc2c(-c3ccc(O)c(O)c3)oc3cc(O)cc(O)c3c2=O)[C@H](O)[C@@H](O)[C@H]1O [Compound 3, quercetin-3-O-β-D-galacturonic acid]	0.210 ±0.012	28.26±0.78 µM EDTA eq/mg and 28.26 µM EDTA eq/mg	0.538±0.015 mM TE/mg and 0.54 mM TE/mg
	< 4.30	3.18	did not show any inhibitory effect	O=C(OC[C@H]1O[C@H](OC(=O)c2cc(O)c(O)c(O)c2)[C@H](O)[C@@H](OC(=O)c2cc(O)c(O)c(O)c2)[C@@H]1O)c1cc(O)c(O)c(O)c1 (stereo in doubt) [Compound 5, 1,3,6-trigalloyl glucose]	9.640±0.061	17.52±2.43 µM EDTA eq/mg and 17.52 µM EDTA eq/mg	1.119±0.116 mM TE/mg and 1.11 mM TE/mg
